Results reported in paper PMC6675120, “Potent and selective inhibitors for M32 metallocarboxypeptidases identified from high-throughput screening of anti-kinetoplastid chemical boxes” (PLoS Neglected Tropical Diseases, 2019).

Target: TbMCP-1 (Trypanosoma brucei, UniProt Q386R0)
Assay: Continuous fluorogenic (FRET) TbMCP-1 assay with Abz-RFFK(Dnp)-OH, primary and secondary screening
Type: biochemical
Experimental: TcMCP-1 (MEROPS ID: M32.003) and TbMCP-1 were expressed as GST fusion proteins in E. coli BL21 (DE3) Codon Plus and purified as previously described.
TbMCP-1 and TcMCP-1 activities were assayed fluorometrically with Abz-RFFK(Dnp)-OH and Abz-LKFK(Dnp)-OH substrates, respectively, in 100 mM MOPS pH 7,2 containing 0,01% Triton X-100. Assays were performed in solid black 384-well plates (final reaction volume ~80 μL) and the hydrolysis of the K(Dnp)-OH group was monitored continuously at 30 °C with a Beckman Coulter DTX 880 Multimode Reader (Radnor, Pennsylvania, USA) using standard 320 nm excitation and 420 nm emission filter set.
In all cases, EDTA (final concentration 31,25 mM) was used as positive inhibition control.
Then, 40 μL of 100 mM MOPS, 0,01% Triton X-100 pH 7,2 containing TbMCP-1 (2,50 nM) or TcMCP-1 (0,34 nM) were added to each well, plates were homogenized (30 seg, orbital, medium intensity) and each well subjected to a single autofluorescence read (ex/em = 320/420 nm). Plates were incubated in darkness for 15 min at 30 °C and then 40 μL of Abz-RFFK(Dnp)-OH (4 μM) or Abz-LKFK(Dnp)-OH (0,8 μM) in assay buffer were added to each well to start the reaction. After homogenization (30 seg, orbital, medium intensity), the fluorescence of the Abz group (ortho-aminobenzoic acid) (ex/em = 320/420 nm) was acquired kinetically for each well (8 read cycles, one cycle every 300 seconds). Considering our previous experiences, the auto-fluorescent cut-off was arbitrarily set at 2x10^5 RFU to discard highly interfering compounds. All compounds were assayed in singlet (without replicates) due to the limited availability of stocks.
Raw screening measurements were used to determine the slope (dF/dt) of progression curves by linear regression for control and non-interfering compound wells. In the case of control-dependent hit selection criteria, percent inhibition percentage (%Inh) was calculated for each compound according to the following equation: Inh=100∙[1−(dF/dt^WELL−μ^C−)/(μ^C+−μ^C−)] (1) where dF/dt^WELL represents the slope of each compound well and μ^C+ and μ^C− the average of MCP (no-inhibition) and substrate (no-enzyme) controls, respectively.
To avoid any positional and/or association bias, we randomly defined the row position for each compound. One μL of compounds stock (10 mM in DMSO) and EDTA (31,25 mM) were added to the first well of column 1, followed by addition of 40 μL of 100 mM MOPS, 0,01% Triton X-100 pH 7,2 buffer. After addition of 20 μL of the same buffer to subsequent wells of the plate, 22 serial 2-fold dilutions were made horizontally. The last two positions of every row were used, alternatively, for C^+ and C^− controls to reduce any positional and/or association bias. Then, 20 μL of activity buffer containing TbMCP-1 or TcMCP-1 were added to each well, except for those corresponding to C^−; completed with 20 μL of activity buffer. After homogenization, 15 minutes of incubation at 30°C and autofluorescence measurement, the substrate (in activity buffer) was added to the previous mix. Data collection and processing were performed exactly as described above. Percentage of M32 MCPs residual activity was calculated for each condition according to the following equation: %Res.Act^MCP=100∙[(dF/dt^WELL−μ^C−)/(μ^C+−μ^C−)] (2) where dF/dt^WELL represents the slope of each compound well and μ^C+ and μ^C− the average of MCP (no-inhibition) and substrate (no-enzyme) controls, respectively.

Sequence of TbMCP-1 (Q386R0 entry or part of it): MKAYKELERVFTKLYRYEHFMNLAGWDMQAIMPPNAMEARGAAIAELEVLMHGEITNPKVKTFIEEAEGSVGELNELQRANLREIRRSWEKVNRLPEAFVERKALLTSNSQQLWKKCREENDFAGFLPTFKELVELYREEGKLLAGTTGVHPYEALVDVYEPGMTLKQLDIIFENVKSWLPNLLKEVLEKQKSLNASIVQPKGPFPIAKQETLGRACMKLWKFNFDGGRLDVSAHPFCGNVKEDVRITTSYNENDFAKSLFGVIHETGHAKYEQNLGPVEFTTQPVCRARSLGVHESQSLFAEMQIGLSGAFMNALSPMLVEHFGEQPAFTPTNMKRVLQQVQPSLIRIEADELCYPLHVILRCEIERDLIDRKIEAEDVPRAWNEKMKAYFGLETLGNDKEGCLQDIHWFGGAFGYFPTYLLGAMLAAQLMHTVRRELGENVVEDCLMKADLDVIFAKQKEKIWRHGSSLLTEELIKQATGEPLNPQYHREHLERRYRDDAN

SMILES: N#Cc1ccc(S(=O)(=O)N2CCN(Cc3cccc(-c4ccncc4)c3)CC2)cc1 [TCMDC-143620]
- potency on TbMCP-1 lower than on TcMCP-1 (TbMCP-1 vs TcMCP-1): ~ 7 fold
- TbMCP-1 Hill Slope (four-parameter Hill fit of dose-response curve): -1,461
- TbMCP-1 2º/1º ratio (secondary (31,5 µM) / primary (25 µM) inhibition): 2,14
- inhibition at 25 µM (single inhibitor concentration 25 µM, read-out: TbMCP-1 Primary screening Inhibition (%)): 45.2%
- inhibition (single inhibitor concentration 31,5 µM): 96.6%
